EP0590919A1, “Therapeutic agents for parkinson's disease” (KYOWA HAKKO KOGYO CO., LTD., priority 1992, dated 1994)

Legend:
[1] = tested on: Rats with a 6-Hydroxydopamine-Induced Unilateral Lesion of the Nigrostriatal Dopamine Pathway; test: Augmentation of apomorphine-induced contralateral rotation in 6-hydroxydopamine-lesioned rats; type: in vivo; settings: test compound 1 mg/kg orally 30 minutes before apomorphine 0.1 mg/kg s.c.; 150 minutes
Description: Then, the animals were anesthetized with sodium pentobarbital (30 mg/kg, i.p., Dainippon Pharm. Co., Ltd.) and the nigrostriatal pathway was lesioned by injection of 6-hydroxydopamine hydrobromide (8 µg, Sigma Co.) into the left medial forebrain bundle. 6-Hydroxydopamine hydrobromide was dissolved in physiological saline containing 0.05% L-ascorbic acid (Wako Pure Chem. Industries, Ltd.) to make 2 µl of solution and injected over 3 minutes.
More than 10 days after surgery, each rat was placed in a plastic bowl (30 cm in diameter). […] The number of rotations was counted with an automated rotometer, in which each 180° turn was counted as a rotation.
Test compounds were suspended in 0.3% sodium carboxymethylcellulose and administered orally at a dose of 1 mg/kg 30 minutes before the injection of apomorphine (0.1 mg/kg, s.c.). The counts of rotations were summed up every 5 minutes for 150 minutes after apomorphine administration. The total rotation counts induced by apomorphine (0.1 mg/kg, s.c.) with and without a test compound were statistically compared, using the same animals. Rats were allowed to rest more than 5 days between each experiment. Statistical comparison of the values was carried out by Sign-Wilcoxon test.

[2] = tested on: dd-strain male mice; test: Acute toxicity test (minimum lethal dose, oral); type: in vivo; settings: oral administration, three mice per group, mortality seven days after administration
Description: Test compounds were orally administered to groups of dd-strain male mice weighing 20 ± 1 g, each group consisting of three mice. Seven days after the administration, minimum lethal dose (MLD) of each compound was determined by observing the mortality.

[3] = tested on: Haloperidol-Induced Catalepsy; test: Effect on haloperidol-induced catalepsy; type: in vivo, mice; settings: for ED50: Mus musculus, 1 h, ten mice at each dose, effective = catalepsy score 3 or less, Probit analysis, oral, read-out: ED₅₀; for Number of the Animals Showing Remission: of five mice, catalepsy score not more than 4 points; for Number of the Animals Showing Remission / Remission Rate (%) / Total Score: 10 mg/kg orally; for Remission Rate (%): rate of decrease in total score based on control group; for Total Score: total catalepsy score of five mice (25 points at the full), haloperidol 1.0 mg/kg i.p.
Method in brief: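 Mice got haloperidol 1.0 mg/kg i.p. in 0.3% CMC, then test compounds orally 1 hr later in 0.3% CMC or Tween 80/water. Catalepsy was scored on a 4.5 cm-high bar 1 hr after dosing; remission meant score ≤4 points. ED₅₀ came from Probit analysis.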

[4] = tested on: MPTP-treated C57BL/6 mice; test: Effect on locomotor activity in Parkinson's disease model in mice (MPTP); type: in vivo; settings: for Amount of Active Movements (average count ± S.E.M): MPTP (+), 30 minutes starting 30 minutes after administration
Description: The experiment was performed by using several groups of 7-weeks-old male C57BL/6 mice (weighing 20 to 24 g, Japan SLC), each group consisting of 8 mice. MPTP (Aldrich Chemical Co., Inc.) dissolved in a physiological saline solution (Otsuka Pharmaceutical Co., Ltd.) was intraperitoneally administered to each mouse once a day for five consecutive days at a dose of 30 mg/kg. A test compound was suspended in injectable distilled water (Otsuka Phamaceutical Co., Ltd.) containing Tween 80 [polyoxyethylene (20) sorbitan monooleate]. L-DOPA (Kyowa Hakko Kogyo Co., Ltd.) was suspended in 0.3% CMC (sodium carboxylmethylcellulose) and bromocriptine was suspended in injectable distilled water. Thirty minutes after the final MPTP administration, the test compound suspensions and the control suspension [injectable distilled water (Otsuka Pharmaceutical Co., Ltd.) containing Tween 80] containing no test compound were orally administered to separate groups of the mice (0.1 ml per 10 g of body weight). […] Statistical comparison of the values was carried out by Student's t-test.

[5] = molecular target: T1, A₁ receptor (Cavia porcellus, UniProt P47745); test: Adenosine A₁ receptor binding test (³H-CHA binding); set-up: species or system guinea pig; settings: for inhibition at 100 µM: 10⁻⁴M; for inhibition at 100 µM / inhibition at 10 µM: guinea pig cerebrum; for inhibition at 10 µM: 10⁻⁵M
T1 construct: from tissue; host or cells: guinea pig cerebrum membrane preparation
T1 sequence (P47745 1-326): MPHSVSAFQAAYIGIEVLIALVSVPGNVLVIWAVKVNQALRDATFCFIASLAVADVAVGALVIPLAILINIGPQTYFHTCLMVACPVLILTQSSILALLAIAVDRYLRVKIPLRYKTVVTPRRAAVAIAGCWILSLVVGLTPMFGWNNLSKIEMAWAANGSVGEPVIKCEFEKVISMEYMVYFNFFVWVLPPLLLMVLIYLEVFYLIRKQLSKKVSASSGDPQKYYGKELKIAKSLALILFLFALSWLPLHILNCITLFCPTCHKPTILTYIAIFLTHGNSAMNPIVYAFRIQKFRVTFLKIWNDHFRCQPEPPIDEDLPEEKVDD
Description: Cerebrum of a guinea pig was suspended in ice-cooled 50 mM Tris hydroxymethyl aminomethane hydrochloride (Tris HCl) buffer (pH 7.7) by using Polytron homogenizer (manufactured by […] Co.). […] The suspension was centrifuged under the same conditions, and the final precipitate was suspended once again in 50 mM Tris HCl buffer to give a tissue concentration of 100 mg (wet weight)/ml. The tissue suspension was incubated at 37°C for 30 minutes in the presence of 0.02 unit/mg tissue of adenosine deaminase (manufactured by Sigma Co.). The tissue suspension was then centrifuged (50,000 x g, 10 minutes), and 50 mM Tris HCl buffer was added to the precipitate to adjust the concentration of tissue to 10 mg (wet weight)/ml. […] The mixture solution was allowed to stand at 25°C for 90 minutes and then rapidly filtered by suction through a glass fiber filter (GF/C manufactured by Whatman Co.). […] The radioactivity on the filter was determined with a liquid scintillation counter (manufactured by Packard Instrument Co.). […] The inhibition constant (Ki value) shown in the table was calculated by the Cheng-Prusoff's equation.

[6] = molecular target: T2, A₂ receptor (Rattus norvegicus, UniProt P30543); test: Adenosine A₂ receptor binding test (³H-NECA binding); settings: for inhibition at 0.1 µM / inhibition at 1 µM / inhibition at 10 µM / inhibition at 100 µM: read-out: Inhibition (%) A₂ Receptor; for Ki: ³H-NECA binding
T2 construct: from tissue; host or cells: rat corpus striatum membrane preparation
T2 sequence (P30543 whole entry): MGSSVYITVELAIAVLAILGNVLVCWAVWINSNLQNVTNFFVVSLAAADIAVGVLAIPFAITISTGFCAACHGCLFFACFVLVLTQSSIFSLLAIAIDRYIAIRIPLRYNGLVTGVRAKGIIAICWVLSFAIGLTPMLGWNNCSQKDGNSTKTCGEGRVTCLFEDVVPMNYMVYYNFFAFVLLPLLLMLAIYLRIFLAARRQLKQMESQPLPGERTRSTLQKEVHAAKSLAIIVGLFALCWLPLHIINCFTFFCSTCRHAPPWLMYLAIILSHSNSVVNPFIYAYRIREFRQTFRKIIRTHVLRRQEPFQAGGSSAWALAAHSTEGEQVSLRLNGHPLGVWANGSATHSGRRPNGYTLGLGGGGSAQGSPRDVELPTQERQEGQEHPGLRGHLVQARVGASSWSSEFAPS

Row | Structure (SMILES) | total amount of rotations (average count ± S.E.M.) test compound + apomorphine [1] [count] | MLD [2] [mg/kg] | ED50 [3] [mg/kg] | Number of the Animals Showing Remission [3] | Remission Rate (%) [3] [%] | Total Score [3] | Amount of Active Movements (average count ± S.E.M) ([4]; test compound 0.63 mg/kg orally) [count] | Amount of Active Movements (average count ± S.E.M) ([4]; test compound 2.5 mg/kg orally) [count] | inhibitory activity against the depression of locomotor activity caused by MPTP ([4]; mouse, in vivo) | inhibition at 100 µM [5] [%] | inhibition at 10 µM [5] [%] | Ki ([5]; Cheng-Prusoff's equation) [nM] | Ratio (A₁/A₂) ([6]; ratio of Ki values A₁/A₂) | inhibition at 0.1 µM [6] [%] | inhibition at 1 µM [6] [%] | inhibition at 10 µM [6] [%] | inhibition at 100 µM [6] [%] | Ki [6] [nM] | Amount of Active Movements (average count ± S.E.M) ([4]; test compound 10 mg/kg orally) [count]
1 | CCn1c(=O)c2c(nc(/C=C/c3ccc(OC)c(OC)c3)n2C)n(CC)c1=O [Compound 2, (E)-8-(3,4-Dimethoxystyryl)-1,3-diethyl-7-methylxanthine] | 1584 ± 196 | > 300 | 0.03 | 5 | 80 | 2 | 610 ±147.9 | 1265 ±316.9 |  |  |  |  |  |  |  |  |  |  | 
2 | CC(C)C[C@H]1C(=O)N2CCC[C@H]2[C@]2(O)O[C@](NC(=O)[C@@H]3C=C4c5cccc6[nH]c(Br)c(c56)C[C@H]4N(C)C3)(C(C)C)C(=O)N12 [Bromocriptine, bromocriptine, reference compound] |  |  |  |  |  |  |  |  | only a weak inhibitory activity |  |  |  |  |  |  |  |  |  | 
3 | COc1ccc(/C=C/c2nc3c(c(=O)n(C)c(=O)n3C)n2C)c(OC)c1OC [Compound 20, (E)-8-(2,3,4-Trimethoxystyryl)caffeine] |  | > 300 | 0.35 | 5 | 72 | 7 |  | 937 ±189.5 |  | 1 | 11 | > 100000 | > 2,000 | 51 | 83 | 90 | 88 | 50 | 
4 | CCn1c(=O)c2c(nc(/C=C/c3ccc(OC)c(C)c3C)n2C)n(CC)c1=O [Compound 10, (E)-1,3-Diethyl-8-(4-methoxy-2,3-dimethylstyryl)-7-methylxanthine] | 1637 ± 127 | > 300 | 0.24 | 5 | 68 |  |  |  |  | 56 | 57 |  |  | 91 | 94 | 90 | 93 | 2 | 754 ±174.2
